The values that follow are results of earlier work, collected in US20250339420A1, “ANILINE-DERIVATIVE-CONTAINING EXTERNAL PREPARATION FOR SKIN” (KINOPHARMA, INC., priority 2022, published 2025).

For series [1], the system named is E6 and E7 genes of human papillomavirus (HPV).

The structures appear in SMILES notation.

With `Fc1ccc(N2CCCCC2)c(NC(=S)c2ccncc2)c1` [Compound I-a, N-[5-fluoro-2-(1-piperidinyl)phenyl]-4-pyridinethioamide], the “effect on p53 gene” value with p53 gene is on record as “stabilizes p53 gene”. Besides, the “antiviral activity against papillomavirus” value in the series with papillomavirus is “exhibits antiviral activity”. The “expression of E6 and E7 genes of human papillomavirus (HPV)” value in series [1] was “suppresses expression”.
